Values quoted from earlier work in patent publication US20240358668A1, “METHODS AND CO[…] AM[…] CARD[…] USING (R)-2-AMINO-3-PH[…]” (AXSOME THERAPEUTICS, INC., priority 2021, published 2024).

Details: prescribing information; or potentially higher; cited from earlier work

In the case of COC(=O)[C@H](c1ccccc1)[C@H]1CCCCN1 [Focalin, dexmethylphenidate], the “increase in blood pressure” value is given as 2-4 mm Hg.
